Measured values taken from patent US12698304B2, “Triterpene saponin variants, methods of synthesis and use thereof” (Memorial Sloan-Kettering Cancer Center, priority 2015, dated 2026).

Tested on: mice immunized with a four-antigen cocktail (MUC1-KLH, GD3-KLH, OVA)
Test: preclinical mouse vaccination model; antibody titers by ELISA
Assay type: in vivo
Conditions: 5 μg and 20 μg dose of saponin variant (both doses); data not shown
Experimental: Panels a-c: anti-KLH (IgG) (Panel a), anti-OVA (IgG) (Panel b), and anti-MUC1 (IgG) (Panel c) antibody titers at 5 μg dose of each saponin variant. […] Median titer values represented as horizontal bars. Statistical significance compared to the no-adjuvant negative control assessed using unpaired Student's t-test with CI=95%: *p≤0.05, **p<0.01, ***p<0.001.
There is currently no in vitro method to measure adjuvant activity, due in part to the unknown and likely multivariate mechanisms of saponin adjuvant action. Thus, we proceeded directly to testing these QS variants in vivo in a mouse vaccination model. Cohorts of mice were immunized with the saponin variant of interest (5 or 20 μg) and a four-antigen cocktail comprising: (1) the immunogenic peptide MUC1 (prostate and breast cancer antigen, non-glycosylated tandem repeat) conjugated to a highly immunogenic carrier protein KLH (keyhole limpet hemocyanin; MUC1-KLH), (2) the poorly immunogenic ganglioside GD3 (melanoma, neuroblastoma, sarcoma antigen) conjugated to KLH (GD3-KLH), and (3) the immunogenic protein antigen ovalbumin (OVA). The antibody titers elicited against all […] antigens were evaluated by ELISA to compare the adjuvant activity of each QS analogue.

C[C@H]1O[C@@H](OC2C(O)[C@@H](NC(=O)CCCCCCCCCCC(=O)O)C(CO)O[C@@H]2OC(=O)N[C@]23CCC(C)(C)CC2C2=CCC4C5(C)CC[C@H](O[C@@H]6OC(C(=O)O)[C@@H](O)[C@H](O[C@@H]7OC[C@@H](O)[C@H](O)C7O)C6O[C@@H]6OC(CO)[C@H](O)[C@H](O)C6O)[C@](C)(C=O)[C@@H]5CC[C@]4(C)[C@]2(C)CC3O)C(O)C(O)[C@H]1O[C@@H]1OC[C@@H](O)C(O)C1O (stereo partly drawn) [α-4]
adjuvant activity (anti-KLH, anti-OVA, anti-MUC1 IgG antibody titers): inactive
